In ChEMBL document CHEMBL5223154, “9-Demethoxy-medicarpin: A potential bone health supplement for the management of protein deficiency-induced bone loss in growing rats” (2023):
The source made the active and inactive calls. The calls are words filed in the database; no cut-off is given here.

What was measured:
Rattus norvegicus [1] = experiment: Effect on protein deficiency diet induced bone loss in Sprague-Dawley rat assessed as increase in global vertebral bone mineral density at 1 to 10 mg, po supplemented with protein deficient diet for one month followed by compound treatment and measured after 4 weeks; type: functional, organism-based; settings: dose 1-10 mg
Rattus norvegicus [2] = experiment: Effect on protein deficiency diet induced bone loss in Sprague-Dawley rat assessed as change in femur length at 10 mg, po supplemented with protein deficient diet for one month followed by compound treatment and measured after 4 weeks; type: functional
Rattus norvegicus [3] = experiment: Effect on protein deficiency diet induced bone loss in Sprague-Dawley rat assessed as change in tibia length at 1 mg, po supplemented with protein deficient diet for one month followed by compound treatment and measured after 4 weeks; type: functional
Rattus norvegicus [4] = experiment: Effect on protein deficiency diet induced bone loss in Sprague-Dawley rat assessed as change in serum alkaline phosphatase level at 10 mg, po supplemented with protein deficient diet for one month followed by compound treatment and measured after 4 weeks; type: functional
Rattus norvegicus [5] = experiment: Effect on protein deficiency diet induced bone loss in Sprague-Dawley rat assessed as increase in global femur bone mineral density at 10 mg, po supplemented with protein deficient diet for one month followed by compound treatment and measured after 4 weeks; type: functional, organism-based
Rattus norvegicus [6] = experiment: Effect on protein deficiency diet induced bone loss in Sprague-Dawley rat assessed as change in serum urea level at 1 mg, po supplemented with protein deficient diet for one month followed by compound treatment and measured after 4 weeks; type: functional
Rattus norvegicus [7] = experiment: Effect on protein deficiency diet induced bone loss in Sprague-Dawley rat assessed as increase in bone mineral density at neck of femur at 10 mg, po supplemented with protein deficient diet for one month followed by compound treatment and measured after 4 weeks; type: functional, organism-based
Rattus norvegicus [8] = experiment: Effect on protein deficiency diet induced bone loss in Sprague-Dawley rat assessed as change in tibia length at 10 mg, po supplemented with protein deficient diet for one month followed by compound treatment and measured after 4 weeks; type: functional
Rattus norvegicus [9] = experiment: Effect on protein deficiency diet induced bone loss in Sprague-Dawley rat assessed as increase in bone mineral density at TFSP region of tibia at 1 mg, po supplemented with protein deficient diet for one month followed by compound treatment and measured after 4 weeks; type: functional, organism-based
Rattus norvegicus [10] = experiment: Effect on protein deficiency diet induced bone loss in Sprague-Dawley rat assessed as change in phosphate ion level in serum at 10 mg, po supplemented with protein deficient diet for one month followed by compound treatment and measured after 4 weeks; type: functional
Rattus norvegicus [11] = experiment: Effect on protein deficiency diet induced bone loss in Sprague-Dawley rat assessed as increase in bone mineral density at midshaft of femur at 10 mg, po supplemented with protein deficient diet for one month followed by compound treatment and measured after 4 weeks; type: functional, organism-based
Rattus norvegicus [12] = experiment: Effect on protein deficiency diet induced bone loss in Sprague-Dawley rat assessed as change in body weight at 10 mg, po supplemented with protein deficient diet for one month followed by compound treatment and measured twice a week for 4 weeks; type: functional
Rattus norvegicus [13] = experiment: Effect on protein deficiency diet induced bone loss in Sprague-Dawley rat assessed as increase in bone mineral density at proximal head of tibia at 10 mg, po supplemented with protein deficient diet for one month followed by compound treatment and […]; type: functional, organism-based
Rattus norvegicus [14] = experiment: Effect on protein deficiency diet induced bone loss in Sprague-Dawley rat assessed as increase in global tibial bone mineral density at 10 mg, po supplemented with protein deficient diet for one month followed by compound treatment and measured after 4 weeks; type: functional, organism-based
Rattus norvegicus [15] = experiment: Effect on protein deficiency diet induced bone loss in Sprague-Dawley rat assessed as increase in bone mineral density at proximal head of tibia at 1 mg, po supplemented with protein deficient diet for one month followed by compound treatment and measured after 4 weeks; type: functional, organism-based
Rattus norvegicus [16] = experiment: Effect on protein deficiency diet induced bone loss in Sprague-Dawley rat assessed as change in serum albumin level at 1 mg, po supplemented with protein deficient diet for one month followed by compound treatment and measured after 4 weeks; type: functional
Rattus norvegicus [17] = experiment: Effect on protein deficiency diet induced bone loss in Sprague-Dawley rat assessed as change in serum albumin level at 10 mg, po supplemented with protein deficient diet for one month followed by compound treatment and measured after 4 weeks; type: functional
Rattus norvegicus [18] = experiment: Effect on protein deficiency diet induced bone loss in Sprague-Dawley rat assessed as change in femur length at 1 mg, po supplemented with protein deficient diet for one month followed by compound treatment and measured after 4 weeks; type: functional
Rattus norvegicus [19] = experiment: Effect on protein deficiency diet induced bone loss in Sprague-Dawley rat assessed as change in serum urea level at 10 mg, po supplemented with protein deficient diet for one month followed by compound treatment and measured after 4 weeks; type: functional
Rattus norvegicus [20] = experiment: Effect on protein deficiency diet induced bone loss in Sprague-Dawley rat assessed as increase in global tibial bone mineral density at 1 mg, po supplemented with protein deficient diet for one month followed by compound treatment and measured after 4 weeks; type: functional, organism-based
Rattus norvegicus [21] = experiment: Effect on protein deficiency diet induced bone loss in Sprague-Dawley rat assessed as change in serum TGA level at 1 mg, po supplemented with protein deficient diet for one month followed by compound treatment and measured after 4 weeks; type: functional
Rattus norvegicus [22] = experiment: Effect on protein deficiency diet induced bone loss in Sprague-Dawley rat assessed as change in phosphate ion level in serum at 1 mg, po supplemented with protein deficient diet for one month followed by compound treatment and measured after 4 weeks; type: functional
Rattus norvegicus [23] = experiment: Effect on protein deficiency diet induced bone loss in Sprague-Dawley rat assessed as change in body weight at 1 mg, po supplemented with protein deficient diet for one month followed by compound treatment and measured twice a week for 4 weeks; type: functional
Rattus norvegicus [24] = experiment: Effect on protein deficiency diet induced bone loss in Sprague-Dawley rat assessed as increase in L3 vertebral bone mineral density at 1 to 10 mg, po supplemented with protein deficient diet for one month followed by compound treatment and measured after 4 weeks; type: functional, organism-based; settings: dose 1-10 mg
Rattus norvegicus [25] = experiment: Effect on protein deficiency diet induced bone loss in Sprague-Dawley rat assessed as increase in L1 vertebral bone mineral density at 1 to 10 mg, po supplemented with protein deficient diet for one month followed by compound treatment and measured after 4 weeks; type: functional, organism-based; settings: dose 1-10 mg
Rattus norvegicus [26] = experiment: Effect on protein deficiency diet induced bone loss in Sprague-Dawley rat assessed as increase in bone mineral density at TFSP region of tibia at 10 mg, po supplemented with protein deficient diet for one month followed by compound treatment and measured after 4 weeks; type: functional, organism-based
Rattus norvegicus [27] = experiment: Effect on protein deficiency diet induced bone loss in Sprague-Dawley rat assessed as change in serum total protein level at 1 mg, po supplemented with protein deficient diet for one month followed by compound treatment and measured after 4 weeks; type: functional
Rattus norvegicus [28] = experiment: Effect on protein deficiency diet induced bone loss in Sprague-Dawley rat assessed as increase in L4 vertebral bone mineral density at 1 to 10 mg, po supplemented with protein deficient diet for one month followed by compound treatment and measured after 4 weeks; type: functional, organism-based; settings: dose 1-10 mg
Rattus norvegicus [29] = experiment: Effect on protein deficiency diet induced bone loss in Sprague-Dawley rat assessed as change in serum creatinine level at 10 mg, po supplemented with protein deficient diet for one month followed by compound treatment and measured after 4 weeks; type: functional
Rattus norvegicus [30] = experiment: Effect on protein deficiency diet induced bone loss in Sprague-Dawley rat assessed as change in serum creatinine level at 1 mg, po supplemented with protein deficient diet for one month followed by compound treatment and measured after 4 weeks; type: functional
Rattus norvegicus [31] = experiment: Effect on protein deficiency diet induced bone loss in Sprague-Dawley rat assessed as change in serum total protein level at 10 mg, po supplemented with protein deficient diet for one month followed by compound treatment and measured after 4 weeks; type: functional
Mesenchymal stem cells = experiment: Induction of osteoblast differentiation in bone marrow mesenchymal stem cells isolated from Sprague-Dawley rat model of protein deficiency diet induced bone loss assessed as increase in mineralized nodule formation at 1 to 10 mg, po supplemented with protein deficient diet for one month followed by compound treatment and measured after 4 weeks by Alizarin Red-S staining based analysis; type: functional, organism-based; settings: dose 1-10 mg
Rattus norvegicus [32] = experiment: Effect on protein deficiency diet induced bone loss in Sprague-Dawley rat assessed as change in serum alkaline phosphatase level at 1 mg, po supplemented with protein deficient diet for one month followed by compound treatment and measured after 4 weeks; type: functional
Rattus norvegicus [33] = experiment: Effect on protein deficiency diet induced bone loss in Sprague-Dawley rat assessed as change in serum TGA level at 10 mg, po supplemented with protein deficient diet for one month followed by compound treatment and measured after 4 weeks; type: functional
Rattus norvegicus [34] = experiment: Effect on protein deficiency diet induced bone loss in Sprague-Dawley rat assessed as increase in L2 vertebral bone mineral density at 1 to 10 mg, po supplemented with protein deficient diet for one month followed by compound treatment and measured after 4 weeks; type: functional, organism-based; settings: dose 1-10 mg

**Q.** For `Oc1ccc2c(c1)OCC1c3ccccc3OC21` (stereo not given), which Activity (Rattus norvegicus [1]) is on record?
**A.** Active

**Q.** What about the Activity (Rattus norvegicus [2]) of the same compound?
**A.** 2.39 cm

**Q.** What about the Activity (Rattus norvegicus [3]) of the same compound?
**A.** 2.647 cm

**Q.** What about the Activity (Rattus norvegicus [4]) of the same compound?
**A.** 512.55 IU/L

**Q.** What about the Activity (Rattus norvegicus [5]) of the same compound?
**A.** Active

**Q.** And the Activity (Rattus norvegicus [6])?
**A.** 11.3 mmol/L

**Q.** And the Activity (Rattus norvegicus [7])?
**A.** Active

**Q.** What about the Activity (Rattus norvegicus [8]) of the same compound?
**A.** 2.8 cm

**Q.** And the Activity (Rattus norvegicus [9])?
**A.** inactive

**Q.** What about the Activity (Rattus norvegicus [10]) of the same compound?
**A.** 7.576 mg/dL

**Q.** What about the Activity (Rattus norvegicus [11]) of the same compound?
**A.** Active

**Q.** And the Activity (Rattus norvegicus [12])?
**A.** 79.7 g

**Q.** And the Activity (Rattus norvegicus [13])?
**A.** Active

**Q.** What about the Activity (Rattus norvegicus [14]) of the same compound?
**A.** Active

**Q.** And the Activity (Rattus norvegicus [15])?
**A.** inactive

**Q.** What about the Activity (Rattus norvegicus [16]) of the same compound?
**A.** 1.11 g/dL

**Q.** What about the Activity (Rattus norvegicus [17]) of the same compound?
**A.** 1.45 g/dL

**Q.** What about the Activity (Rattus norvegicus [18]) of the same compound?
**A.** 2.25 cm

**Q.** And the Activity (Rattus norvegicus [19])?
**A.** 14.1333 mmol/L

**Q.** What about the Activity (Rattus norvegicus [20]) of the same compound?
**A.** inactive

**Q.** What about the Activity (Rattus norvegicus [21]) of the same compound?
**A.** 17.8333 mg/dL

**Q.** What about the Activity (Rattus norvegicus [22]) of the same compound?
**A.** 4.346 mg/dL

**Q.** What about the Activity (Rattus norvegicus [23]) of the same compound?
**A.** 74.03 g

**Q.** And the Activity (Rattus norvegicus [24])?
**A.** Active

**Q.** And the Activity (Rattus norvegicus [25])?
**A.** Active

**Q.** And the Activity (Rattus norvegicus [26])?
**A.** Active

**Q.** What about the Activity (Rattus norvegicus [27]) of the same compound?
**A.** 48.9 g/L

**Q.** What about the Activity (Rattus norvegicus [28]) of the same compound?
**A.** Active

**Q.** What about the Activity (Rattus norvegicus [29]) of the same compound?
**A.** 0.2567 mg/dL

**Q.** What about the Activity (Rattus norvegicus [30]) of the same compound?
**A.** 0.2633 mg/dL

**Q.** And the Activity (Rattus norvegicus [31])?
**A.** 64.7 g/L

**Q.** What about the Activity (Mesenchymal stem cells) of the same compound?
**A.** Active

**Q.** What about the Activity (Rattus norvegicus [32]) of the same compound?
**A.** 377.2 IU/L

**Q.** What about the Activity (Rattus norvegicus [33]) of the same compound?
**A.** 23.9333 mg/dL

**Q.** What about the Activity (Rattus norvegicus [34]) of the same compound?
**A.** Active
